Holding throughout (assay type): in vivo
One experiment deals with corn (Zea mays, ZEAMX). Nature of the experiment: Test A post-emergence, corn. Conditions: after 13 d. The procedure, abridged: (§1)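 Foliar application to 8-day-old seedlings at 15.625, 62.5 or 250 g/ha; phytotoxicity scored 0–100 after 13 d.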
The test system of the next experiment is maize. Nature of the experiment: Test D pre-emergence, maize seed treated with a herbicide safener. The settings on record: ZEAMX, preemergent, 20 DAA. As for the experimental part: A formulation containing 50 g/L of the test chemical was prepared by dissolving the active ingredient in a mixture of organic solvents and emulsifier, details of which are provided in the table. This formulation was then mixed with a small, variable amount of acetone to aid dissolution, before addition of a 0.2% v/v aqueous solution of an adjuvant, as the aqueous diluent, to form an aqueous spray solution which contains a predetermined concentration of the active ingredient.
This aqueous spray solution was then sprayed onto plants including maize and wheat that had been seed treated with a herbicide safener, after one day's cultivation (for pre-emergence) or after about 12 days' cultivation (for post-emergence). The plants were grown from seeds sown in standard soil, placed in a glasshouse under controlled conditions (at 24/18° C. or 20/16° C., day/night; 16 h light; 65% humidity). After spray application the plants were then grown in a glasshouse under the same conditions and watered twice daily. After 15 d for post-emergence and 20 DAA for pre-emergence the test was evaluated (100=total damage to plant; 0=no damage to plant).

For experiment [1], the system named is giant foxtail (Setaria faberi, SETFA). Nature of the experiment: Test A pre-emergence, giant foxtail. The settings on record: after 13 d. In a few lines:
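Values are percent plant damage 13 d after a pre-emergence spray (15.625, 62.5 or 250 g/ha; acetone/water with 0.5% Tween 20) applied to pots one day post-sowing, under glasshouse conditions of 24/16° C. and twice-daily watering.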

Experiment [2] concerns redroot pigweed (Amaranthus retroflexus, AMARE). Nature of the experiment: Test A post-emergence, redroot pigweed. The settings on record: after 13 d. In a few lines: as §1
Experiment [3] concerns giant foxtail (Setaria faberi, SETFA). Briefly: Test A post-emergence, giant foxtail. The settings on record: after 13 d. In a few lines:
as §1

Experiment [4] deals with velvetleaf (Abutilon theophrasti, ABUTH). Briefly: Test A post-emergence, velvetleaf. Conditions: after 13 d. The procedure, abridged:
as §1

For the compound `CN1CC(c2cc(C(F)(F)F)n(C)n2)C(C(=O)Nc2cccc(F)c2C(F)(F)F)C1=O` (racemic) [Compound 19], the “damage to plant (100=total damage; 0=no damage) ZEAMX” value in the experiment with corn (Zea mays, ZEAMX) (Post-Emergence at 15.625 g/ha) was 0; in the experiment with corn (Zea mays, ZEAMX) (Post-Emergence at 62.5 g/ha), 0; in the experiment on corn (Zea mays, ZEAMX) (Post-Emergence at 250 g/ha), 10. The “damage to plant (100=total damage to plant; 0=no damage to plant), ZEAMX” value in the experiment with maize (rate 15), in the experiment on maize (rate 30), in the experiment on maize (rate 60), with maize (rate 130), with maize (rate 250) and in the experiment on maize (rate 500) was 0 throughout. In addition, the “damage to plant (100=total damage; 0=no damage) SETFA” value in experiment [1] (Pre-Emergence at 15.625 g/ha) was determined as 80; in experiment [1] (Pre-Emergence at 62.5 g/ha), 90; in experiment [1] (Pre-Emergence at 250 g/ha), 90; in experiment [3] (Post-Emergence at 15.625 g/ha), 70; in experiment [3] (Post-Emergence at 62.5 g/ha), 70; in experiment [3] (Post-Emergence at 250 g/ha) it was 80. For the same compound, the “damage to plant (100=total damage; 0=no damage) AMARE” value in experiment [2] (Post-Emergence at 15.625 g/ha) was 0; in experiment [2] (Post-Emergence at 62.5 g/ha), 0; in experiment [2] (Post-Emergence at 250 g/ha), 30. Besides, the “damage to plant (100=total damage; 0=no damage) ABUTH” value in experiment [4] (Post-Emergence at 15.625 g/ha), in experiment [4] (Post-Emergence at 62.5 g/ha) and in experiment [4] (Post-Emergence at 250 g/ha) was 0 each time.
Take `CN1CC(c2cc(C(F)(F)F)n(C)n2)C(C(=O)Nc2cccc(F)n2)C1=O` (racemic) [Compound 24]: the “damage to plant (100=total damage; 0=no damage) ZEAMX” value in the experiment with corn (Zea mays, ZEAMX) (Post-Emergence at 15.625 g/ha) is reported as 0; in the experiment with corn (Zea mays, ZEAMX) (Post-Emergence at 62.5 g/ha), 10; in the experiment with corn (Zea mays, ZEAMX) (Post-Emergence at 250 g/ha) it was 40. The “damage to plant (100=total damage to plant; 0=no damage to plant), ZEAMX” value in the experiment on maize (rate 15), in the experiment on maize (rate 30), in the experiment with maize (rate 60), in the experiment on maize (rate 130), in the experiment with maize (rate 250) and with maize (rate 500) was 0 throughout. Also, the “damage to plant (100=total damage; 0=no damage) SETFA” value in experiment [1] (Pre-Emergence at 15.625 g/ha) is recorded as 70; in experiment [1] (Pre-Emergence at 62.5 g/ha), 90; in experiment [1] (Pre-Emergence at 250 g/ha), 90; in experiment [3] (Post-Emergence at 15.625 g/ha), 20; in experiment [3] (Post-Emergence at 62.5 g/ha), 70; in experiment [3] (Post-Emergence at 250 g/ha), 80. Also, the “damage to plant (100=total damage; 0=no damage) AMARE” value in experiment [2] (Post-Emergence at 15.625 g/ha), in experiment [2] (Post-Emergence at 62.5 g/ha) and in experiment [2] (Post-Emergence at 250 g/ha) was 0 in each case. Also, the “damage to plant (100=total damage; 0=no damage) ABUTH” value in experiment [4] (Post-Emergence at 15.625 g/ha), in experiment [4] (Post-Emergence at 62.5 g/ha) and in experiment [4] (Post-Emergence at 250 g/ha) was 0 in each case.
Regarding `CN1CC(c2cnn(C)c2C(F)(F)F)C(C(=O)Nc2cccc(F)c2F)C1=O` (racemic) [Compound 25], the “damage to plant (100=total damage; 0=no damage) ZEAMX” value in the experiment with corn (Zea mays, ZEAMX) (Post-Emergence at 15.625 g/ha) is on record as 0; in the experiment with corn (Zea mays, ZEAMX) (Post-Emergence at 62.5 g/ha), 20; in the experiment with corn (Zea mays, ZEAMX) (Post-Emergence at 250 g/ha), 30. Also, the “damage to plant (100=total damage to plant; 0=no damage to plant), ZEAMX” value in the experiment with maize (rate 15), in the experiment with maize (rate 30), with maize (rate 60), with maize (rate 130), in the experiment with maize (rate 250) and with maize (rate 500) was 0 each time. Besides, the “damage to plant (100=total damage; 0=no damage) SETFA” value was determined as 80 in experiment [1] (Pre-Emergence at 15.625 g/ha); 90 in experiment [1] (Pre-Emergence at 62.5 g/ha); 100 in experiment [1] (Pre-Emergence at 250 g/ha); 30 in experiment [3] (Post-Emergence at 15.625 g/ha); 70 in experiment [3] (Post-Emergence at 62.5 g/ha); 80 in experiment [3] (Post-Emergence at 250 g/ha). Besides, the “damage to plant (100=total damage; 0=no damage) AMARE” value in experiment [2] (Post-Emergence at 15.625 g/ha), in experiment [2] (Post-Emergence at 62.5 g/ha) and in experiment [2] (Post-Emergence at 250 g/ha) was 0 throughout. Moreover, the “damage to plant (100=total damage; 0=no damage) ABUTH” value in experiment [4] (Post-Emergence at 15.625 g/ha), in experiment [4] (Post-Emergence at 62.5 g/ha) and in experiment [4] (Post-Emergence at 250 g/ha) was 0 in each case.
In the case of `CN1C[C@H](c2nn(C)c3c(F)cccc23)[C@@H](C(=O)Nc2cccc(F)c2F)C1=O` [Compound 2], the “damage to plant (100=total damage; 0=no damage) ZEAMX” value is given as 10 with corn (Zea mays, ZEAMX) (Post-Emergence at 15.625 g/ha); 0 with corn (Zea mays, ZEAMX) (Post-Emergence at 62.5 g/ha); 40 in the experiment on corn (Zea mays, ZEAMX) (Post-Emergence at 250 g/ha). The “damage to plant (100=total damage to plant; 0=no damage to plant), ZEAMX” value is recorded as 0 in the experiment with maize (rate 15); 0 in the experiment with maize (rate 30); 0 with maize (rate 60); 0 in the experiment with maize (rate 130); 0 in the experiment on maize (rate 250); 10 in the experiment on maize (rate 500). Also, the “damage to plant (100=total damage; 0=no damage) SETFA” value in experiment [1] (Pre-Emergence at 15.625 g/ha) was 90; in experiment [1] (Pre-Emergence at 62.5 g/ha), 90; in experiment [1] (Pre-Emergence at 250 g/ha), 90; in experiment [3] (Post-Emergence at 15.625 g/ha) it was 0; in experiment [3] (Post-Emergence at 62.5 g/ha) it was 70; in experiment [3] (Post-Emergence at 250 g/ha), 80. For the same compound, the “damage to plant (100=total damage; 0=no damage) AMARE” value in experiment [2] (Post-Emergence at 15.625 g/ha), in experiment [2] (Post-Emergence at 62.5 g/ha) and in experiment [2] (Post-Emergence at 250 g/ha) was 0 throughout. For the same compound, the “damage to plant (100=total damage; 0=no damage) ABUTH” value in experiment [4] (Post-Emergence at 15.625 g/ha), in experiment [4] (Post-Emergence at 62.5 g/ha) and in experiment [4] (Post-Emergence at 250 g/ha) was 0 each time.
Regarding `CN1CC(c2cc(C(F)(F)F)n(C)n2)C(C(=O)Nc2ccccc2F)C1=O` (racemic) [Compound 9], the “damage to plant (100=total damage; 0=no damage) ZEAMX” value with corn (Zea mays, ZEAMX) (Post-Emergence at 15.625 g/ha) is listed as 20; in the experiment with corn (Zea mays, ZEAMX) (Post-Emergence at 62.5 g/ha) it was 0; in the experiment on corn (Zea mays, ZEAMX) (Post-Emergence at 250 g/ha), 50. The “damage to plant (100=total damage to plant; 0=no damage to plant), ZEAMX” value in the experiment with maize (rate 15), in the experiment on maize (rate 30), in the experiment on maize (rate 60), in the experiment with maize (rate 130), in the experiment on maize (rate 250) and in the experiment on maize (rate 500) was 0 throughout. Moreover, the “damage to plant (100=total damage; 0=no damage) SETFA” value in experiment [1] (Pre-Emergence at 15.625 g/ha) is on record as 70; in experiment [1] (Pre-Emergence at 62.5 g/ha), 90; in experiment [1] (Pre-Emergence at 250 g/ha) it was 90; in experiment [3] (Post-Emergence at 15.625 g/ha) it was 40; in experiment [3] (Post-Emergence at 62.5 g/ha), 90; in experiment [3] (Post-Emergence at 250 g/ha), 90. Besides, the “damage to plant (100=total damage; 0=no damage) AMARE” value in experiment [2] (Post-Emergence at 15.625 g/ha), in experiment [2] (Post-Emergence at 62.5 g/ha) and in experiment [2] (Post-Emergence at 250 g/ha) was 0 in each case. Besides, the “damage to plant (100=total damage; 0=no damage) ABUTH” value in experiment [4] (Post-Emergence at 15.625 g/ha), in experiment [4] (Post-Emergence at 62.5 g/ha) and in experiment [4] (Post-Emergence at 250 g/ha) was 0 throughout.

Source of the values: US20220281848A1, “PYRAZOLE-SUBSTITUTED PYRROLIDINONES AS HERBICIDES” (FMC Corporation, priority 2019, published 2022).
